One may read the IC50 as the point on the concentration scale where inhibition reaches its midpoint.

The values that follow come from PMC3252304, “Hydroxybenzothiazoles as New Nonsteroidal Inhibitors of 17β-Hydroxysteroid Dehydrogenase Type 1 (17β-HSD1)” (PLoS ONE, 2012).

In one experiment the target is T1, human 17β-HSD1 (Homo sapiens, UniProt P14061).
T1 construct: In the cell free assay, the placental cytosolic enzyme was used; from tissue; host or cells: human placenta, cytosolic fraction, ammonium sulfate precipitate
T1 sequence (P14061 1-328): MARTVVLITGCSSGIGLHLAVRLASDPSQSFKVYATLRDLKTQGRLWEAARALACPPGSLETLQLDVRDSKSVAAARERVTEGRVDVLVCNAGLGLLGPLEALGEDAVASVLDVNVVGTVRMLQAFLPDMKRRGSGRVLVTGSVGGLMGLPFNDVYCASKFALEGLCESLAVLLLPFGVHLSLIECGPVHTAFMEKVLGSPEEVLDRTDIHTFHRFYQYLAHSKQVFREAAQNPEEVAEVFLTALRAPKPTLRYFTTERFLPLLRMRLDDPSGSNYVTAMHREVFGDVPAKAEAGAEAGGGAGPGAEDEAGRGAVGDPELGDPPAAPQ
In words: 17β-HSD1 cell free assay (placental cytosolic enzyme, [3H]E1 to E2, HPLC radiodetection). It is filed as biochemical. Conditions: for IC50 / inhibition at 1 µM / 17β-HSD1 % inhib. (1µM): human placenta cytosolic fraction, [3H]E1 + E1 500 nM, NADH 500 µM; for IC50: mean of three determinations; for inhibition at 1 µM / 17β-HSD1 % inhib. (1µM): inhibitor 1 µM, less than 10% = inactive, ni = no inhibition; for inhibition at 1 µM: read-out: 17β-HSD1 % inhib. (1µM).

Another experiment concerns the target T2, human 17β-HSD2 (Homo sapiens, UniProt P37059).
T2 construct: 17β-HSD2 was obtained from the microsomal fraction; from tissue; host or cells: human placenta, microsomal fraction
T2 sequence (P37059 1-387): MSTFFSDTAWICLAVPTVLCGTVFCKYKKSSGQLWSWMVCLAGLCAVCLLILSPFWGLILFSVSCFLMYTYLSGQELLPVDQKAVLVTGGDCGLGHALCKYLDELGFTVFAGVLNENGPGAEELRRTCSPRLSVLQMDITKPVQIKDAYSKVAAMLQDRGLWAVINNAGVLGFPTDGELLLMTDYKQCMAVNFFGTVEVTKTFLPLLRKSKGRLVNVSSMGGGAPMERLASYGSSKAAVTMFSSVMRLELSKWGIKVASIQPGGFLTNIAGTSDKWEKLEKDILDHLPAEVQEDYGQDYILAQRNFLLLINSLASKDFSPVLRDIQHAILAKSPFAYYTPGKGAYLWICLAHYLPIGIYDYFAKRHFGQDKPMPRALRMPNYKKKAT
The experiment is described as follows: 17β-HSD2 cell free assay (placental microsomal enzyme, [3H]E2 to E1, HPLC radiodetection). It is filed as biochemical. The note with it: for IC50: human placenta microsomal fraction, [3H]E2 + E2 500 nM, NAD+ 1500 µM, mean of three determinations; for SF, selectivity factor = IC50(17β-HSD2)/IC50(17β-HSD1): ratio of cell free IC50 values. How it is done:
Placental microsomal 17β-HSD2 was incubated with tritiated E2 (final concentration: 500 nM) in the presence of NAD^+ (1500 µM) and inhibitor. Separation and quantification of labeled substrate (E2) and product (E1) was performed by HPLC using radiodetection.
17β-HSD1 and 17β-HSD2 were obtained from human placenta according to previously described procedures. Fresh human placenta was homogenized and cytosolic fraction and microsomes were separated by centrifugation. For the partial purification of 17β-HSD1, the cytosolic fraction was precipitated with ammonium sulfate. 17β-HSD2 was obtained from the microsomal fraction.
Inhibition of 17β-HSD2. The 17β-HSD2 inhibition assay was performed similarly to the 17β-HSD1 procedure. The microsomal fraction was incubated with NAD^+ [1500 µM], test compound and a mixture of unlabelled- and [2, 4, 6, 7-^3H]-E2 (final concentration: 500 nM, 0.11 µCi) for 20 min at 37 °C. Further treatment of the samples and HPLC separation were carried out as mentioned above.
The conversion rate was calculated after analysis of the resulting chromatograms according to the following equation: % conversion = % E1/(% E1 + % E2) × 100.

The next experiment relates to ERs. Further details: method as in PMID 15743715, PMID 16728493. The note with it: RBA(E2) = 100%; cited from earlier work.
Another experiment deals with 17β-HSD1. Further details: method as in PMID 12223444. Conditions: recombinant protein, NADPH as cosubstrate; value as described; read-out: 17β-HSD1 IC50 (external reference); cited from earlier work.

Experimental for human 17β-HSD1: In the cell free assay, the placental cytosolic enzyme was used. Tritiated E1 (final concentration: 500 nM) was incubated with 17β-HSD1, NADH (500 µM), and inhibitor as previously described [59]. After high performance liquid chromatography (HPLC) separation of substrate and product, the amount of labeled E2 formed was quantified.
Inhibitory activities were evaluated by an established method with minor modifications. Briefly, the enzyme preparation was incubated with NADH [500 µM] in the presence of potential inhibitors at 37 °C in a phosphate buffer (50 mM) supplemented with 20 % of glycerol and EDTA (1mM). Inhibitor stock solutions were prepared in DMSO. The final concentration of DMSO was adjusted to 1 % in all samples. The enzymatic reaction was started by addition of a mixture of unlabelled- and [2, 4, 6, 7-^3H]-E1 (final concentration: 500 nM, 0.15 µCi). After 10 min, the incubation was stopped with HgCl2 and the mixture was extracted with diethylether. After evaporation, the steroids were dissolved in acetonitrile. E1 and E2 were separated using acetonitrile/water (45:55) as mobile phase in a C18 reverse phase chromatography column (Nucleodur C18 Gravity, 3 µm, Macherey-Nagel, Düren) connected to a HPLC-system (Agilent 1100 Series, Agilent Technologies, Waldbronn). Detection and quantification of the steroids were performed using a radioflow detector (Berthold Technologies, Bad Wildbad). The conversion rate was calculated after analysis of the resulting chromatograms according to the following equation: % conversion = % E2/(% E2 + % E1) × 100. Each value was calculated from at least three independent experiments.

Take `O=C(Nc1cccc(O)c1)c1nc2ccc(O)cc2s1` [Compound 18]: at human 17β-HSD1, the IC50 worked out at 1310 nM and the inhibition at 1 µM came out at 40%. Further, at human 17β-HSD2, the IC50 worked out at 3810 nM and the “SF, selectivity factor = IC50(17β-HSD2)/IC50(17β-HSD1)” value amounted to 3.

As for `O=C(c1ccc(O)cc1)c1nc2ccc(O)cc2s1` [Compound 14, (6-hydroxy-1,3-benzothiazol-2-yl)(4-hydroxyphenyl)methanone], at human 17β-HSD1, the IC50 amounted to 243 nM and the inhibition at 1 µM was 85%. Further, at human 17β-HSD2, the IC50 came out at 2470 nM and the “SF, selectivity factor = IC50(17β-HSD2)/IC50(17β-HSD1)” value came out at 10.

For `Oc1ccc(Cc2nc3ccc(O)cc3s2)cc1` [Compound 11], on human 17β-HSD1, the inhibition at 1 µM turned out to be 24%.

On to `COc1ccc2nc(Cc3ccc(O)cc3)sc2c1` [Compound 10], for which, on human 17β-HSD1, the “17β-HSD1 % inhib. (1µM)” value was “ni”.

Consider `Oc1cccc(C(O)c2nc3ccc(O)cc3s2)c1` (stereo not shown) [Compound 7], for which, at human 17β-HSD1, the inhibition at 1 µM amounted to 28%.

For the molecule `COc1ccc(C(=O)Nc2nc3ccc(O)cc3s2)cc1` [Compound 19], the “17β-HSD1 % inhib. (1µM)” value on human 17β-HSD1 is given as “ni”.

Consider `O=S(=O)(Nc1nc2ccc(O)cc2s1)c1cccc(O)c1` [Compound 22], for which, at human 17β-HSD1, the “17β-HSD1 % inhib. (1µM)” value is “inactive and ni”.

Consider `O=C(Cc1cccc(O)c1)Nc1nc2ccc(O)cc2s1` [Compound 25], for which the “17β-HSD1 % inhib. (1µM)” value at human 17β-HSD1 is “inactive and ni”.

With `O=C(Nc1nc2ccc(O)cc2s1)c1ccc(O)cc1` [Compound 20], the inhibition at 1 µM on human 17β-HSD1 came to 39%.

On to `O=C(c1cccc(O)c1)c1nc2ccccc2s1` [Compound 12, 1,3-benzothiazol-2-yl(3-hydroxyphenyl)methanone], for which the “fold lower 17β-HSD1 inhibitory activity than 6” value on human 17β-HSD1 (compared with compound 6) worked out at 8 fold. Moreover, on human 17β-HSD1, the IC50 worked out at 365 nM and the inhibition at 1 µM stood at 75%. Besides, at human 17β-HSD2, the IC50 was determined as 1360 nM and the “SF, selectivity factor = IC50(17β-HSD2)/IC50(17β-HSD1)” value is recorded as 4.

As to `O=C(Nc1ccccc1O)c1nc2ccc(O)cc2s1` [Compound 16], the “17β-HSD1 % inhib. (1µM)” value on human 17β-HSD1 is recorded as “ni”.

As for `Cc1nc(C(=O)c2cccc(O)c2)sc1CCO` [Compound 5, [5-(2-hydroxyethyl)-4-methyl-1,3-thiazol-2-yl](3-hydroxyphenyl)methanone], the inhibition at 1 µM at human 17β-HSD1 amounted to 34%.

With `C[C@]12CC[C@@H]3c4ccc(O)cc4CC[C@H]3[C@@H]1CCC2=O` [Compound E1, estrone], the “RBA for the ERs” value in the experiment on ERs is reported as “about 10%”.

As to `CSC(c1ccc(O)cc1)c1nc2ccc(O)cc2s1` (stereo not shown) [Compound 9], at human 17β-HSD1, the “17β-HSD1 % inhib. (1µM)” value was “ni” and the inhibition at 1 µM turned out to be 7%.

For `C[C@]12CC[C@@H]3c4ccc(O)cc4CC[C@H]3[C@@H]1C[C@H](CCCCCCCCC(=O)OCC1OC(n3cnc4c(N)ncnc43)C(O)C1O)[C@@H]2O` (stereo partly shown) [EM-1745], the IC50 with 17β-HSD1 is 52 nM.

On to `COc1ccc2nc(C(=O)Nc3ccccc3O)sc2c1` [Compound 15], for which the “17β-HSD1 % inhib. (1µM)” value at human 17β-HSD1 is “ni”.

Turning to `COc1cccc(C(=O)c2nc3ccc(OC)cc3s2)c1` [Compound 6i], the “17β-HSD1 % inhib. (1µM)” value on human 17β-HSD1 was “ni”.

As for `COc1ccc(C(=O)c2nc3ccc(O)cc3s2)cc1` [Compound 13, (6-hydroxy-1,3-benzothiazol-2-yl)(4-methoxyphenyl)methanone], the inhibition at 1 µM on human 17β-HSD1 came out at 27%.

As to `O=C(Nc1cccc(O)c1)Nc1nc2ccc(O)cc2s1` [Compound 23], the “17β-HSD1 % inhib. (1µM)” value on human 17β-HSD1 was “inactive and no inhibition and ni”.

Consider `O=C(c1cccc(O)c1)c1nc2ccc(O)cc2s1` [Compound 6, (6-hydroxy-1,3-benzothiazol-2-yl)(3-hydroxyphenyl)methanone], for which, at human 17β-HSD1, the IC50 was determined as 44 nM and the inhibition at 1 µM amounted to 91%. On human 17β-HSD2, the IC50 stood at 1040 nM and the “SF, selectivity factor = IC50(17β-HSD2)/IC50(17β-HSD1)” value was found to be 24.

Turning to `O=C(Nc1nc2ccc(O)cc2s1)c1cccc(O)c1` [Compound 21], the inhibition at 1 µM at human 17β-HSD1 is 83%. The IC50 at human 17β-HSD2 turned out to be 9260 nM.

Turning to `COc1ccc2nc(C(=O)Nc3cccc(O)c3)sc2c1` [Compound 17], on human 17β-HSD1, the inhibition at 1 µM turned out to be 31%.

`COC(c1cccc(O)c1)c1nc2ccc(O)cc2s1` (stereo not shown) [Compound 8]: the inhibition at 1 µM on human 17β-HSD1 was 13%.

For the molecule `Oc1cccc(NC(=S)Nc2nc3ccc(O)cc3s2)c1` [Compound 24], at human 17β-HSD1, the “17β-HSD1 % inhib. (1µM)” value is reported as “moderate inhibitory activity” and the inhibition at 1 µM turned out to be 62%.
